According to patent publication US12298319B2, “Method for measuring alpha value of muscarinic M1 receptor positive allosteric modulators” (Takeda Pharmaceutical Company Limited, priority 2017, dated 2025):
Where two headings read alike, the source gives them in different places. Each block holds one molecule with its values, some of them ahead of it.

Legend:
[1] = system: Arc mRNA expression in mouse hippocampus; assay: Arc mRNA expression in hippocampus (RT-PCR, PD marker); type: in vivo; details: 90 min after treatment
Protocol: For in vivo pharmacodynamics (PD) marker analysis, mice were sacrificed by decapitation at 90 min after administration of Compound A or Compound B. Hippocampal tissues were isolated from the brain. These tissues were stored at -80° C. until RNA extraction. Total RNA from individual tissues was extracted using QIAzol Lysis Reagent and the RNeasy kit (Quiagen, Hilden, Germany) following the manufacturer's instruction. RT-PCR was carried out using ABI PRISM 7900HT sequence detection system (Life Technologies, Bedford, MA) and TagMan reagents (Eurogentec, Seraing, Belgium). RNA quantities were normalized using glyceraldehyde-3-phosphate dehydrogenase (GAPDH) mRNA transcripts according to manufacturer's instruction. The following primers were used for mouse Arc analysis: forward primer, [NT] ID NO:3); reverse primer, [NT] ID NO:4), TagMan probe, [NT] ID NO:5). The primers used for mouse Gapdh analysis were TagMan Rodent GAPDH Control Reagent, VIC probe, purchased from ABI (Applied biosystems-Life Technologies, Waltham, MA).

[2] = system: scopolamine-induced cognitive deficits in mice; assay: Y-maze task, scopolamine-induced cognitive deficits; type: in vivo, mouse; details: for scopolamine-induced cognitive deficits in Y-maze task: 5-min measurement
Protocol: The Y-maze apparatus has a three-arm maze with equal angles between all arms and made of black colored acrylic. Each arm consisted of 40 cm length, 4 cm width, and 12 cm walls. The Y-maze was located in a sound-attenuated room and illuminated at 10 lux. Compound B (10 or 30 mg/kg) and Compound A (1, 3 or 10 mg/kg) were pretreated orally at 60 min prior to the testing. After 30 min, memory impairment was induced by administering scopolamine (0.3 or 1 mg/kg, as hydrobromide salt, s.c.). At 30 min after the administration of scopolamine, mice were placed in the Y-maze and then spontaneous alternation performance was assessed visually for 5 to 8 min. Each animal underwent one trial. A mouse was considered to have entered an arm when all four paws were positioned in one third of the arm runway from the center of the Y maze. Alternations were defined as successive entries into each of the three arms on overlapping triplet sets, and alternation rate, expressed as a percentage, referred to the ratio of actual (total alternations) to possible alternations (total arm entries−2)×100.

[3] = Pharmacokinetics after oral administration to mice; type: in vivo, mouse; details: for Cmax / Tmax / AUC(0-t): mouse, plasma, po; for AUC(0-t): read-out: AUC0-4 h
Protocol: Plasma concentration of Compound B at 30 and 1000 mg/kg. Plasma samples were collected at 0.5, 1, 2, 4 and 6 h after oral treatment. Results represent the mean. n=3 per group.

[4] = system: IP1 production in the hippocampus; assay: In vivo IP1 assay, hippocampus of wild-type and M1R KO mice; design: species or system mouse
Description: Hippocampus was isolated from the brain.

[5] = system: isolated mouse ileum; assay: In vitro Magnus method, spontaneous ileum motility; details: cumulative concentrations
Protocol: After overnight fasting, mice were sacrificed. The ileum was quickly dissected out and suspended in ice-cold Krebs solution with the following composition (in mM): NaCl, 120.7; KCl, 5.9; CaCl2, 2.5; MgCl2, 1.2; NaHCO3, 15.5; NaH2PO4, 1.2; and glucose, 11.5. Longitudinal segments of ileum (10-15 mm long) were detached of mesentery and adipose tissue, and mounted in organ baths containing 10 mL of Krebs solution aerated with 95% O2/5% CO2. Bath temperature was maintained at 37° C. The isolated ileum was given a passive load of 0.5 g. The contractile response of the isolated ileum was continuously recorded with isometric transducer (MLT050/A, ADInstruments, New South Wales, Australia) and recorder (PowerLab 8/30 ML870 and Octal Bridge Amp ML228, ADInstruments). […]
The contraction was measured as the maximum strength from the baseline. The effects of experimental substances on the maximum contraction were measured. […] The effect of each concentration of the compounds on ileum spontaneous contraction induced was calculated from the average value of 6 responses of the maximum strength. Then the ileum contractile response was expressed as a ratio of the mean maximum contraction to that obtained with the pre-treated DMSO (solvent). […] Due to very small size of relaxations, the effects of the compounds on them was not be analyzed.

[6] = biological target: M3R (Homo sapiens, UniProt P20309); assay: Ca2+ flux assay in CHO-K1 cells expressing human M3R; type: cell-based; design: expressed in transfected cells; host or cells: CHO-K1; details: read-out: IP for M3R
M3R, sequence (P20309 whole entry): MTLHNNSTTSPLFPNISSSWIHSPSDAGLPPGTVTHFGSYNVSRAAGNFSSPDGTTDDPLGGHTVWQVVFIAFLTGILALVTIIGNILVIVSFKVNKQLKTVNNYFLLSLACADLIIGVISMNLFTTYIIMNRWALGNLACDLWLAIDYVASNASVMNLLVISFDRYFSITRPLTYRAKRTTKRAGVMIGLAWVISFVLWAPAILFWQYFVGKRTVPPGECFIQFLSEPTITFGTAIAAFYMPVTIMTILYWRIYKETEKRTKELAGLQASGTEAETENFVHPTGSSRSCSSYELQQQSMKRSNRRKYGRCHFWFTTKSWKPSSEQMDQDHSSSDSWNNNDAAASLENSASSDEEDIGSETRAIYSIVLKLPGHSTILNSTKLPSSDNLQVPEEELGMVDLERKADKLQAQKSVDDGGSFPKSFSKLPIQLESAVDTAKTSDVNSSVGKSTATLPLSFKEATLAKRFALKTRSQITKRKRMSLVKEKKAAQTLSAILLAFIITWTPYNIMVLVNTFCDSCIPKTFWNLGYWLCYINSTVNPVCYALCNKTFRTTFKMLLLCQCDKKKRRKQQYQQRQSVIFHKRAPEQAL

[7] = biological target: T1, M2R (Homo sapiens, UniProt P08172); assay: Ca2+ flux assay in CHO-K1 cells expressing human M2R; type: cell-based; design: expressed in transfected cells; host or cells: CHO-K1; details: read-out: IP for M2R
T1 sequence (P08172 1-466): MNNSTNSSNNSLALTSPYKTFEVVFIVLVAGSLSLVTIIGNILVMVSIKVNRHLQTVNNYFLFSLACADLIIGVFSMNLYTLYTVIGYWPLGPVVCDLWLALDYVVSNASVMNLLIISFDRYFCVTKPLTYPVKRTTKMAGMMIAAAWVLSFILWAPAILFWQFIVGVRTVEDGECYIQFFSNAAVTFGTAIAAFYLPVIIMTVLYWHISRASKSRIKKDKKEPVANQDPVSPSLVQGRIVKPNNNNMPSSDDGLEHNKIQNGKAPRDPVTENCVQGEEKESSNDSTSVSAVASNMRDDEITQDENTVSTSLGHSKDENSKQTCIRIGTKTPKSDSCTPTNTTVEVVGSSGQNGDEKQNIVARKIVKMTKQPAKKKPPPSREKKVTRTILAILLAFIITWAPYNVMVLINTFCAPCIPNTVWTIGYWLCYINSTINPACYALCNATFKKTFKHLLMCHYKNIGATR

Structure (SMILES): Cn1ccc(-c2ccc(CN3Cc4cccc(O[C@H]5CCCC[C@@H]5O)c4C3=O)cc2)n1 [Compound A, 7-(((1S,2S)-2-hydroxycyclohexyl)oxy)-2-(4-(1-methyl-1H-pyrazol-3-yl)benzyl)isoindolin-1-one]
Arc mRNA expression level in mouse hippocampus ([1]; 30 mg/kg p.o.): significant increase | Arc mRNA expression level in mouse hippocampus ([1]; 3-30 mg/kg p.o.): enhanced the expression level of Arc mRNA in a dose-dependent manner | scopolamine-induced cognitive deficits in Y-maze task ([2]; 10 mg/kg p.o.): trends to improve | scopolamine-induced decrease in spontaneous alternation ratio in Y-maze task ([2]; 10 mg/kg p.o., 8 min measurement): significantly ameliorated

Structure (SMILES): Cn1cc(-c2ccc(CN3Cc4cccc(Oc5c(F)cccc5C#N)c4C3=O)cc2)cn1 [Compound B, 3-fluoro-2-((2-(4-(1-methyl-1H-pyrazol-4-yl)benzyl)-3-oxo-2,3-dihydro-1H-isoindol-4-yl)oxy)benzonitrile]
increase in Arc mRNA expression level in mouse hippocampus ([1]; 10-100 mg/kg p.o.): about 2 fold | Cmax ([3]; 30 mg/kg p.o.): 270 ng/mL | Tmax ([3]; 30 mg/kg p.o.): 2 h | AUC(0-t) ([3]; 30 mg/kg p.o.): 800 ng·h/mL | Cmax ([3]; 1000 mg/kg p.o.): 970 ng/mL | Tmax ([3]; 1000 mg/kg p.o.): 1.7 h | AUC(0-t) ([3]; 1000 mg/kg p.o.): 3020 ng·h/mL | plasma concentration at 1000 mg/kg relative to 30 mg/kg ([3]; p.o.): 3.6 fold | scopolamine-induced cognitive deficits in Y-maze task ([2]; 30 mg/kg p.o.): significantly ameliorated

Structure (SMILES): Cn1cc(-c2ccc(Cc3cc4c(=O)n([C@H]5CCCC[C@@H]5O)cnc4c4ccccc34)cn2)cn1 [Compound C, 3-((1S,2S)-2-hydroxycyclohexyl)-6-((6-(1-methyl-1H-pyrazol-4-yl)pyridin-3-yl)methyl)benzo[h]quinazoline-4(3H)-one, reference compound]
IP1 production in the hippocampus ([4]; M1R KO mice, 10 mg/kg p.o.): not in M1R KO mice | IP1 production in the hippocampus ([4]; wild-type mice, 10 mg/kg p.o.): significantly induced IP1 production | spontaneous ileum motility [5]: strengthened the spontaneous ileum motility in a concentration-dependent manner | EC50 [6]: > 1 µM | EC50 [7]: > 1 µM

EC50 [6]: > 10 µM | EC50 [7]: > 10 µM
Structure (SMILES): Cc1c(Cc2ccc(-n3cccn3)cc2)cc2c(c1F)CN([C@H]1COCC[C@@H]1O)C2=O [Compound D, 4-fluoro-2-[(3S,4S)-4-hydroxytetrahydro-2H-pyran-3-yl]-5-methyl-6-[4-(1H-pyrazol-1-yl)benzyl]-2,3-dihydro-1H-isoindol-1-one]
IP1 production in the hippocampus ([4]; M1R KO mice, 3 mg/kg p.o.): did not induce IP1 production | IP1 production in the hippocampus ([4]; wild-type mice, 3 mg/kg p.o., 3 h, % of vehicle-treated control): 153.3±9.3% | spontaneous ileum motility [5]: lower impact on ileum motility
